From patent US20260132547A1, “NOVEL PHAGE LIBRARIES OF BICYCLIC PEPTIDES” (priority 2024, published 2026)
Entries after “also recorded” stand apart in the source; their conditions may differ. Numbered stars: 1 amine (or outer) side, 2 acyl side, 3 side chain; on linkers, the order of the positions; unused ones are H or OH. Bridge positions count the residues as written; N and C are the ends. Square brackets hold non-standard residues; d marks the D form. Peptide text beside a SMILES is read from it. X1 = O=C(c1cc(/C(=N/O)[*:2])cc(/C(=N/O)[*:3])c1)[*:1]; d(aIle) = CC[C@H](C)[C@@H](N)C(=O)O

Legend:
[1] = Stability of bicyclic peptide in DMSO-d6/PBS/D2O, monitored by 1H NMR; type: physicochemical; details: 0.96 mM in DMSO-d6/PBS (pH 5.9)/D2O (1/8/1), 1 week
Protocol: FIG. 38. Stability studies of 5h (0.96 mM) in DMSO-d6/PBS (pH 5.9)/D2O (1/8/1) monitored by ^1H NMR.

[2] = Stability of bicyclic peptide in PBS at varied pH, monitored by LC-MS; type: physicochemical; details: 200 μM in PBS, pH 5.1, pH 7.4 and pH 9.2, over 16 days
Protocol: FIGS. 37a-37c. FIG. 37a. LC-MS (280 nm) trace of the bicyclic peptide 5h in PBS pH 5.1 over 16 days. FIG. 37b. LC-MS (280 nm) trace of the bicyclic peptide 5h in PBS pH 7.4 over 16 days. FIG. 37c. LC-MS (280 nm) trace of the bicyclic peptide 5h in PBS pH 9.21 over 16 days.
The bicyclic peptide 5h was prepared according to above mentioned procedure and purified by RP-HPLC. The solution of bicyclic peptide 5h (200 μM) in PBS was incubated at pH 5.1, pH 7.4, and pH 9.2, respectively. The sample was analyzed by LC-MS at different time points over 16 days (Method C).

[3] = Hydrolysis of OSu ester in aqueous acetone/PBS, monitored by 1H NMR; type: physicochemical
Text: FIG. 15. Hydrolysis of OSu ester (S18) in 80% acetone/PBS (pH 7.4) monitored by ^1H NMR.
FIG. 16. Hydrolysis of OSu ester (S18) in 50% acetone/PBS (pH 7.4) monitored by ^1H NMR.

[4] = molecular target: SARS-CoV-2 Spike RBD (SARS-CoV-2), P0DTC2; assay: ELISA: plate coated with 100 nM SARS-CoV-2 Spike RBD, biotinylated bicyclic peptide titrated, streptavidin-HRP/TMB, A450; curve fitting

## CC[C@H](C)[C@H]1NC(=O)[C@H](CC(C)C)NC(=O)[C@H](C)NC(=O)c2cc3cc(c2)/C(=N/O)SC[C@H](NC(=O)CNC1=O)C(=O)N1CCC[C@H]1C(=O)N[C@@H](Cc1ccccc1)C(=O)N1CCC[C@H]1C(=O)N[C@@H](C)C(=O)N[C@@H](CCCNC(=N)N)C(=O)N[C@@H](Cc1c[nH]c2ccccc12)C(=O)N[C@H](C(N)=O)CS/C3=N\O [5h] (AL[d(aIle)]GCPFPARWC-NH2; linker N-5-12 via X1)
[1]
  Chemical stability (1H NMR profile): no change of NMR profile
[2]
  Chemical stability in PBS (LC-MS profile): remained intact; also recorded: no change of the LC-MS profile

## O=C(ON1C(=O)CCC1=O)c1ccc(/C=N/O)cc1 [S18]
[3]; acetone-d6/PBS/D2O (5/4/1), 20 min
  Percentage of S20 (%): 12%
[3]; acetone-d6/PBS/D2O (5/4/1), 1 h
  Percentage of S20 (%): 26%
[3]; acetone-d6/PBS/D2O (5/4/1), 2 h
  Percentage of S20 (%): 33%
[3]; acetone-d6/PBS/D2O (8/1/1), 20 min
  Percentage of S20 (%): trace
[3]; acetone-d6/PBS/D2O (8/1/1), 1 h
  Percentage of S20 (%): trace
[3]; acetone-d6/PBS/D2O (8/1/1), 20 h
  Percentage of S20 (%): 4%

B1: bicyclized NP8 (…) (peptide)
peptide: AIDSCRYNHGWQC
modifications: not checked
[4]
  Kd: 3 µM

B2: bicyclized NP10 (…) (peptide)
peptide: AISECNHIAEWMC
modifications: not checked
[4]
  Kd: 0.4 µM
